These results are taken from PubChem BioAssay AID1902 (Broad Institute, 2009).

Molecules are shown by their SMILES. Active and inactive are the calls of the source.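 Rule for the calls: active = EC50 no more than a set limit of log units above the highest dose; inactive = the rest.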

Usually EC50 stands for the midpoint of the concentration-response curve.

The assay concerns the target S. pyogenes SKKanGAS, kanamycin survival, BacTiterGlo, 6 h. As to the kind of experiment: SKKanGAS survival reduction under kanamycin, dose response, streptokinase promoter inhibitor project, SKKanGAS strain, luminescence, dose confirmation (AID 1902).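 Note: lower survival reflects blocked streptokinase promoter driving kanamycin resistance gene.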
Take `COc1ccc(/C=C2/Sc3ccc(C(=O)N4CCc5ccccc5C4)cc3NC2=O)cc1`: the EC50 is 1.65 µM.
The figure for `CC/C(=C(\c1ccccc1)c1ccc(OCCN(C)C)cc1)c1ccccc1` is 6.17 µM; for `Cc1nc(-c2ccccn2)nc(SCC(=O)c2ccccc2)c1Cl` it is 0.811 µM; for `COc1ccc2nc(N3C(=O)CNC3=S)sc2c1` it is 2.89 µM.
Regarding `COc1ccc(Nc2nc(NN)nc(Nc3ccc(OC)cc3)n2)cc1`, the EC50 was 6.02 µM.
The value for `Cc1ccc2c(=O)[nH]c(Nc3nc(C)cc(-c4ccccc4)n3)nc2c1` was 3.37 µM.
Consider `O=C1Nc2ccccc2S/C1=C/Nc1cccc(Cl)c1`, for which the EC50 is 6.77 µM.
The value for `Cc1ccccc1NC(=O)C(=O)NC(C)CCc1ccccc1` (stereo not drawn) was > 15 µM (inactive).
The value for `COc1ccc2nc(-n3c(O)c(C4=c5ccccc5=NC4=O)[nH]c3=S)sc2c1` was 0.508 µM; that for `COc1ccc(N=C2NN=C(c3c(C)[nH]c4ccccc34)CS2)cc1` was 7.32 µM.
The value for `CC[C@H]1OC(=O)[C@H](C)[C@@H](O[C@H]2C[C@@](C)(OC)[C@@H](O)[C@H](C)O2)[C@H](C)[C@@H](O[C@@H]2O[C@H](C)C[C@H](N(C)C)[C@H]2O)[C@](C)(O)C[C@@H](C)CN(C)[C@H](C)[C@@H](O)[C@]1(C)O` was < 0.06 µM.
`Cc1noc(C)c1CSc1nc2sc(C)c(C)c2c(=O)n1C1CCCC1`: the concentration giving a half-maximal response (EC50) is 2.94 µM.
The figure for `Cc1cc(C)n(-c2nc(NCCCO)c3c4c(sc3n2)CCCC4)n1` is 2.2 µM; for `CCCCn1c(/C=N/Nc2nc3ccccc3[nH]2)nc2ccccc21` it is 1.17 µM.
The value for `O=C(N/N=C/c1cc(Cl)ccc1O)c1cccnc1` was 1.55 µM; that for `O=c1[nH]c2cc3c(cc2cc1CN(CCc1ccccc1)Cc1nnnn1CC1CCCO1)OCO3` (stereo not drawn) was > 15 µM (inactive).
The value for `Cc1ccc(C(=O)c2c(C)oc3c2C(=O)C(=O)c2ccccc2-3)cc1` was 0.801 µM; that for `Cc1c(Cl)cnn1CC(=O)NC1C(=O)N2C(C(=O)O)=C(CSc3nnnn3C)CSC12` (stereo not drawn) was < 0.06 µM; that for `NC(=S)N/N=C\c1c(OCc2ccccc2Cl)ccc2ccccc12` was 2.53 µM.
Regarding `COc1ccccc1C(=O)NNC(=S)NC(=O)c1ccco1`, the EC50 is 0.383 µM.
The figure for `O=C(NC(NC(=S)Nc1ccccc1Cl)C(Cl)(Cl)Cl)c1cccc(Cl)c1` (stereo not drawn) is 1.59 µM.
The figure for `C=CCn1c(COc2ccccc2)nnc1SCC(=O)N/N=C/c1cc(Cl)ccc1O` is 3.32 µM.
The value for `Cc1cc(/C=C2\SC(=O)NC2=O)c(C)n1-c1ccc(N2CCOCC2)cc1` was 1.58 µM; that for `CC(C)n1cnc2c(NCc3ccccc3)nc(NCc3ccccc3)nc21` was 3.06 µM.
As for `COc1ccccc1N1CCN(C(=O)/C=C/c2c(Cl)nc3ccccn23)CC1`, the EC50 was 1.6 µM.
The value for `O=C(CSc1nc2nc(-c3cccs3)cc(C(F)(F)F)c2c(=O)[nH]1)Nc1ccc(F)c(F)c1` was 1.16 µM.
The value for `CC1(C)N=C(N)N=C(N)N1c1ccc(Oc2ccc(Cl)cc2)c(Cl)c1` was < 0.06 µM; that for `N=c1ccn2c(n1)O[C@H]1[C@H](O)[C@@H](CO)O[C@H]12` was 4.89 µM; that for `CCCCCCCCCCOC(=O)Cn1c(COc2ccccc2OC)[n+](C)c2ccccc21` was 7.28 µM.
The figure for `O=C(NCc1ccc2c(c1)OCO2)Nc1ccc(F)cc1` is > 15 µM (inactive); for `CCCCN(CC)S(=O)(=O)c1ccc(C(=O)Nc2nnc(-c3ccccc3Cl)o2)cc1` it is 0.226 µM; for `FC(F)(F)c1cc(-c2ccccc2)nc(N2CCCCCC2)n1` it is 3.93 µM.
Regarding `CC(C)=CCc1cc([C@@H]2COc3c(ccc4c3C=CC(C)(C)O4)C2)c(O)cc1O`, the EC50 is 2.94 µM.
For the molecule `Cc1oc(-c2ccc(F)cc2)nc1CN(Cc1ccccn1)CC1CCCO1` (stereo not drawn), the half-maximal effective concentration (EC50) is 2 µM.
Take `O=C(NC(NC(=S)Nc1cccc(Cl)c1)C(Cl)(Cl)Cl)OCc1ccccc1` (stereo not drawn): the concentration giving a half-maximal response (EC50) is 1.78 µM.
The value for `CC(=O)NC(c1ccccc1)c1cc(Cl)c2cccnc2c1O` (stereo not drawn) was 1.17 µM; that for `Cc1ccc(NC(=O)C(OC(=O)c2ccc(NC(N)=O)cc2)c2ccccc2)cc1Cl` (stereo not drawn) was 6.52 µM; that for `Cc1ccc2nc(NNC(=O)c3ccc(S(=O)(=O)N4CCc5ccccc5C4)cc3)sc2c1` was 0.793 µM.
Regarding `Cc1cn(-c2cc(C(=O)Nc3ccc(C)c(NC(=O)C(=O)c4c[nH]c5ccccc45)c3)cc(C(F)(F)F)c2)cn1`, the EC50 was 2.78 µM.
The figure for `O=C(NC(=S)NNC(=O)c1ccccc1O)c1ccccc1` is 2.35 µM; for `COc1ccccc1-c1cn[nH]c1-c1ccc(OCc2ccc(F)cc2)cc1O` it is 10.8 µM.
The value for `CC[C@@H](C)[C@H](NC(=O)OC(C)(C)C)c1nnc(S(=O)(=O)Cc2cc(C)ccc2C)o1` was 9.66 µM.
The figure for `CC(C)=CCC12Oc3cc(O)ccc3C1(O)Oc1cc3c(c(O)c1C2=O)C=CC(C)(C)O3` (stereo not drawn) is 2.4 µM; for `Nc1ccc2c(c1)C(=O)C(=O)c1ccccc1-2` it is 0.754 µM; for `O=C1C(=O)c2ccccc2-c2ccccc21` it is 1.26 µM.
For `Cc1ccc(Cn2c(Cc3ccccc3)nc3ccccc32)cc1`, the EC50 was 14.2 µM.
The value for `Cc1ccc(C(=O)OC2OC(=O)C(Cl)=C2N2CCOCC2)cc1` (stereo not drawn) was 0.884 µM; that for `Nc1nc(NCc2ccco2)nc(N2CCCCCC2)c1[N+](=O)[O-]` was 4.09 µM.
The value for `Cn1c(=O)c(NCCc2ccccc2)c2c3c(cccc31)C(=O)c1ccccc1-2` was 8.86 µM.
As for `COc1ccc(CCNC(=O)CSc2nncn2N)cc1OC`, the EC50 is > 15 µM (inactive).
The value for `CCNC(=O)c1c(NC(=O)c2cc(-c3cc(C)ccc3O)n[nH]2)sc2c1CCCC2` was 2.44 µM; that for `CCCCNc1c(-c2ccc(SC(C)CC)c(OC)c2)nc2ccc(C)cn12` (stereo not drawn) was 3.46 µM.
The value for `CCN1C(=O)/C(=C\c2ccc(-c3ccc([N+](=O)[O-])cc3OC)o2)SC1=Nc1cccc(C(=O)O)c1` was 3.57 µM; that for `FC(F)(F)c1ccc(C2[C@H]3CN(Cc4cccnc4)[C@H](c4ccccc4)C34CC2(c2cccnc2)C4)cc1` (stereo partly drawn) was 5.15 µM.
As for `c1ccc2c(-c3c[nH]c4ccccc34)c3ccccc3nc2c1`, the concentration giving a half-maximal response (EC50) was 10.9 µM.
Consider `Cc1c(Cl)c(C(F)F)nn1CC(=O)NC1C(=O)N2C(C(=O)O)=C(CSc3nnnn3C)CSC12` (stereo not drawn), for which the EC50 is < 0.06 µM.
The value for `Oc1c(C(Nc2ccccn2)c2ccccn2)ccc2cccnc12` (stereo not drawn) was 10.7 µM; that for `C/C(=N\NC(=O)CSc1nc(C)[nH]c1[N+](=O)[O-])c1ccc(F)cc1` was > 15 µM (inactive).
The value for `CCOc1cc(/C=N/Nc2cccc(C(=O)O)c2)ccc1OC(=O)c1ccccc1` was 5.18 µM; that for `Cn1c(N)c(C(=O)COC(=O)/C=C/c2ccc(OC(F)F)cc2)c(=O)n(C)c1=O` was 1.47 µM.
The value for `CCOc1ccc(C(=O)NC(=S)Nc2ccc(N3CCOCC3)c(Cl)c2)cc1[N+](=O)[O-]` was 0.714 µM; that for `Cc1cc(C)n(-c2nc(C)nc(NCc3ccccc3)n2)n1` was > 15 µM (inactive); that for `COc1ccc(N=Nc2cc(-c3ccccc3)ccc2O)cc1` was 13.1 µM.
`CCCn1c(NC(=O)c2ccccc2)nc2ccccc21`: the half-maximal effective concentration (EC50) is 1.57 µM.
Regarding `O=C(CSc1nc(-c2ccc(Cl)cc2)[nH]c(=O)n1)Nc1cccc(Cl)c1`, the EC50 is 2.35 µM.
The figure for `Cc1nn(-c2ccccc2)c(C)c1/C=N/Nc1nc2ccccc2[nH]1` is 9.71 µM; for `CC(C)c1ccccc1OCC(=O)NC1CCCc2ccccc21` (stereo not drawn) it is 11.7 µM; for `CSc1n[nH]c2nc3c(c(=O)n12)C1(CCCCC1)Cc1ccccc1-3` it is 10.5 µM.
The figure for `CCCCNc1c(-c2cccc(-c3ccc(OC)cc3)c2)nc2ccc(C)cn12` is 4.05 µM.
The value for `O=[N+]([O-])c1cc(S(=O)(=O)Nc2cccc(Cl)c2)ccc1N=Nc1c(O)[nH]c2ccccc12` was 3.61 µM; that for `O=c1c2cc(-c3ccccc3)sc2nc2n1CCC2` was 7.67 µM; that for `CCOC(=O)c1cnn(-c2nc(-c3ccccc3F)cs2)c1C(F)(F)F` was 10.9 µM.
As for `CCOc1ccc(-n2c(O)c(/C=N/NC(=O)C3COc4ccccc4O3)c3ccccc3c2=O)cc1` (stereo not drawn), the EC50 was 2.34 µM.
The value for `Cc1ccc(-c2cc(C(=O)N3CCN(c4ccccc4O)CC3)c3ccccc3n2)cc1` was 8.84 µM.
The figure for `Cc1ccc(C(=O)NNC(=S)NC(=O)c2ccc(Cl)cc2)cc1` is 0.074 µM; for `COc1ccc(C(C)=O)cc1COc1cc(C)c(Cl)c(C)c1` it is > 15 µM (inactive).
Turning to `O=C(O)c1ccc(CSc2nc(-c3ccc(Cl)cc3)cc(C(F)(F)F)n2)cc1`, the half-maximal effective concentration (EC50) is 2.69 µM.
The value for `O=c1c2ccccc2sn1-c1cc(S(=O)(=O)N2CCOCC2)ccc1N1CCOCC1` was 13.3 µM.
The figure for `O=C(NNC(=S)NC(=O)c1ccc(Br)cc1)c1cccc([N+](=O)[O-])c1` is 0.892 µM; for `N=C(N)c1ccc(OCCCCCOc2ccc(C(=N)N)cc2)cc1` it is < 0.06 µM; for `O=C1NC[C@@H](Cc2cccc3ccccc23)N(CCCCC2CCCCC2)C1=O` it is 3.93 µM.
Regarding `CCn1cnc2c1c(=O)n(CC(=O)Nc1cc(C)on1)c(=O)n2Cc1ccccc1`, the EC50 was > 15 µM (inactive).
The value for `Cc1cccc(Nc2nc(-c3ccc(F)c(C)c3)cs2)n1` was 8.5 µM.
The value for `c1ccc(CSC2=NNC(c3ccccn3)S2)cc1` (stereo not drawn) was 1.13 µM.
With `O=C(NC(=S)NNC(=O)c1cccs1)c1ccco1`, the half-maximal effective concentration (EC50) is 6.22 µM.
As for `Cc1cc(NC(=O)c2cnccn2)no1`, the EC50 was > 15 µM (inactive).
Turning to `CC(C)CCC(CCNCc1ccccn1)c1ccc(Cl)cc1` (stereo not drawn), the EC50 was 13.2 µM.
The figure for `CCOc1ccc(C(=O)NC(=S)N(Cc2ccccc2)Cc2ccccc2)cc1` is 1.39 µM.
The figure for `Cc1cc(C)c(CSc2ncc(-c3ccc([N+](=O)[O-])cc3)[nH]2)c(C)c1` is 4.19 µM; for `O=C(Nc1nnc(SCc2ccc(F)cc2)s1)c1ccc2c(c1)C(=O)N(c1ccccc1Cl)C2=O` it is 6.26 µM; for `CC(=O)Nc1ccc(C#Cc2ccc(NC(C)=O)cc2)cc1` it is 1.19 µM.
The figure for `O=C(O)c1ccccc1-c1ccccc1C(=O)Nc1ccc(-c2nc3cc(Cl)ccc3o2)cc1` is 5.3 µM; for `Cc1ccc(-n2c(SCC(=O)Nc3ccc4c5c(cccc35)CC4)nc(O)cc2=O)cc1` it is 11.9 µM.
